From ChEMBL document CHEMBL3886816, “Substituted 5-(3,5-dimethylisoxazol-4-yl)indoline-2-ones” (2016) come the findings set out here.

The target of assay [1] is Bromodomain-containing protein 4 (Homo sapiens, UniProt O60885). The assay can be described thus: (§1) Time-Resolved Fluorescence Resonance Energy Transfer (TR-FRET) Assay: The assay was carried out in binding mixtures of the bromodomain protein, 0-10 μM compounds and tetra-acetylated histone peptide (SGRGAC.KGGAC.KGLGAC.KGGAAC.[…]-biotin) in buffer containing 25 mM HEPES pH 7.5, 100 mM NaCl, 0.1% BSA, 0.05% CHAPS, and detection reagents. […] Upon further incubation for 1 hr, the TR-FRET signals were recorded on a BMG PHERAstar FS instrument. In general terms: TR-FRET usually uses a lanthanide donor and a delayed reading to cut background.

The target in assay [2] is Bromodomain-containing protein 2 (Homo sapiens, UniProt P25440). The description is as §1.
Assay [3] concerns the target Bromodomain testis-specific protein (Homo sapiens, UniProt Q58F21). The description is as §1.
The target of assay [4] is Bromodomain-containing protein 3 (Homo sapiens, UniProt Q15059). Described as §1.

SMILES strings stand for the structures.

Chain of Bromodomain-containing protein 2 (P25440 whole entry): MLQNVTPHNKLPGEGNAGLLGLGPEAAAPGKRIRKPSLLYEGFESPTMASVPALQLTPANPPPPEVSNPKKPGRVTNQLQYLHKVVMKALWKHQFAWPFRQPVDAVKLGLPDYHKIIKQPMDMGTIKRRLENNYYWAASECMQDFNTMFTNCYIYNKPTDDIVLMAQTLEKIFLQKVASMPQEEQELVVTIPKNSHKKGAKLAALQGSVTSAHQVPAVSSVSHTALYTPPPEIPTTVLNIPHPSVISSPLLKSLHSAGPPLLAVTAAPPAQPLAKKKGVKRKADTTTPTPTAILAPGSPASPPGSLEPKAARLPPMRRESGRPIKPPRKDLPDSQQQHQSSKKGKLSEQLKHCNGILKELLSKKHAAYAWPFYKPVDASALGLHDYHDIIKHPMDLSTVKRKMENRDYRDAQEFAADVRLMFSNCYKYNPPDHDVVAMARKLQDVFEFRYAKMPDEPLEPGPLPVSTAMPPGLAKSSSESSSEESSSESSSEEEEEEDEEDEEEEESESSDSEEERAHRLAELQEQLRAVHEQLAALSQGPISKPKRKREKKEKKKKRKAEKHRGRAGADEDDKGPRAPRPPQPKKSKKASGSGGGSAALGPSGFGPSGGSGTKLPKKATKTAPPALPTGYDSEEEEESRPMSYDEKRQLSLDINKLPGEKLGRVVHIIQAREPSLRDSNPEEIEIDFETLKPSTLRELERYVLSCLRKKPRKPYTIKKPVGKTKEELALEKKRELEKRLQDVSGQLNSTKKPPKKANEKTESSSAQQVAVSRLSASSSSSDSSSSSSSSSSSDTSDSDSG
Chain of Bromodomain-containing protein 3 (Q15059 whole entry): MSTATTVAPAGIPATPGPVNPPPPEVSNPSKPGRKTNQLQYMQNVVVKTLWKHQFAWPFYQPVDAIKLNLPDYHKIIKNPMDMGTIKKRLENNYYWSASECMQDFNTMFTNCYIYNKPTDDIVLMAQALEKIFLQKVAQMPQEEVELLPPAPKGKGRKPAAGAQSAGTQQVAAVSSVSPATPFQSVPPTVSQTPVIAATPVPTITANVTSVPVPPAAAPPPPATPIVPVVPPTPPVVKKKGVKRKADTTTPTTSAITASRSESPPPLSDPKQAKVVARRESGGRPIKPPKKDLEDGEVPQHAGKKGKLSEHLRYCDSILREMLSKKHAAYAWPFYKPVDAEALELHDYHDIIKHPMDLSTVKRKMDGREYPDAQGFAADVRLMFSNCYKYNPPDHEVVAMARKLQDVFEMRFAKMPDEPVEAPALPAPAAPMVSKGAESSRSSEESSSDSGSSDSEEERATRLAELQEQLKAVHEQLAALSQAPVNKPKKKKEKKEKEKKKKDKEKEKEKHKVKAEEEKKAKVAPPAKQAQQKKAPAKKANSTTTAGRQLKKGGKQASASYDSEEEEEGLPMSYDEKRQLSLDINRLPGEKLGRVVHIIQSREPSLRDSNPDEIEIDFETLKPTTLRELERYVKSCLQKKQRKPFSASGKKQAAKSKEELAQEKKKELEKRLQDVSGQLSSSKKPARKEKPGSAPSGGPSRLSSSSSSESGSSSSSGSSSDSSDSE

Take `Cc1noc(C)c1-c1ccc2c(c1)C(C1CCCCC1)(N1CCN(C)CC1)C(=O)N2` (stereo not given): the 50% inhibitory concentration (IC50) in assay [1] was determined as 110 nM.
Still for that read-out and setting: with `Cc1noc(C)c1-c1ccc2c(c1)C(OCCO)(C1CCCCC1)C(=O)N2` (stereo not given) the figure was 82 nM; with `C=CCCC1(O)C(=O)Nc2ccc(-c3c(C)noc3C)cc21` (stereo not given), 430 nM.
The same measure, in the same setting: under `Cc1noc(C)c1-c1ccc2c(c1)C(O)(C1CCCCCC1)C(=O)N2` (stereo not given) stands 98 nM; under `C=CCCCC1(O)C(=O)Nc2ccc(-c3c(C)noc3C)cc21` (stereo not given), 540 nM; under `Cc1noc(C)c1-c1ccc2c(c1)C(C1CCCC1)(N1CCN(C)CC1)C(=O)N2` (stereo not given), 180 nM.
With `Cc1noc(C)c1-c1ccc2c(c1)C(N)(c1ccccc1)C(=O)N2` (single isomer, unassigned), the half-maximal inhibitory concentration (IC50) in assay [2] was 55 nM; in assay [1], 150 nM; in assay [3], 95 nM; in assay [4], 35 nM.

Usually IC50 stands for the point on the concentration scale where inhibition reaches its midpoint.
